In the supplement of paper PMC10307832:

Experiments:
Assay in all cases: relative viability (nuclei count vs DMSO), 5 days (fraction); higher = more cells survive
[1] = compound: CCN1CCN(c2ccc(Nc3cc(N(C)C(=O)Nc4c(Cl)c(OC)cc(OC)c4Cl)ncn3)cc2)CC1 [BGJ398] + Nc1ncn([C@H]2C[C@H](O)[C@@H](CO)O2)c(=O)n1 [Decitabine] (partner 2 µM)
In short: (§1)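 After 5 days of treatment, lung cancer cells in 1536-well plates were fixed and stained in a single step (final 0.05% Triton X-100, 1% formaldehyde, 1 ug/ml Hoechst) and their nuclei counted on 4× images. Treatment had been applied by pin tool the day after seeding as one drug alone or as a fixed anchor-drug dose with five library-drug doses (not always all listed) in √10 steps. Relative viability is the nuclei count of treated wells divided by that of vehicle wells, and values are medians of duplicate plates.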

[2] = compound: CCN1CCN(c2ccc(Nc3cc(N(C)C(=O)Nc4c(Cl)c(OC)cc(OC)c4Cl)ncn3)cc2)CC1 [BGJ398] + O=C(CCCCCCC(=O)Nc1ccccc1)NO [Vorinostat] (partner 1 µM)
In short: as §1

[3] = compound: CCN1CCN(c2ccc(Nc3cc(N(C)C(=O)Nc4c(Cl)c(OC)cc(OC)c4Cl)ncn3)cc2)CC1 [BGJ398] + Cc1nc(Nc2ncc(C(=O)Nc3c(C)cccc3Cl)s2)cc(N2CCN(CCO)CC2)n1 [Dasatinib] (partner 0.075 µM)
In short: as §1

[4] = compound: C1=CC2=NC=CN=C2C=C1/C=C/3\C(=O)NC(=O)S3 + O=C(CCCCCCC(=O)Nc1ccccc1)NO [Vorinostat] (partner 1 µM)
In short: as §1

Row | Cell Line | relative viability ([1]; first compound 0.01 µM) | relative viability ([1]; first compound 0.03162 µM) | relative viability ([1]; first compound 0.1 µM) | relative viability ([1]; first compound 0.3162 µM) | relative viability ([1]; first compound 1 µM) | relative viability ([2]; first compound 0.01 µM) | relative viability ([2]; first compound 0.03162 µM) | relative viability ([2]; first compound 0.1 µM) | relative viability ([2]; first compound 0.3162 µM) | relative viability ([2]; first compound 1 µM) | relative viability ([3]; first compound 0.01 µM) | relative viability ([3]; first compound 0.03162 µM) | relative viability ([3]; first compound 0.1 µM) | relative viability ([3]; first compound 0.3162 µM) | relative viability ([3]; first compound 1 µM) | relative viability ([4]; first compound 0.02 µM) | relative viability ([4]; first compound 0.06325 µM) | relative viability ([4]; first compound 0.2 µM) | relative viability ([4]; first compound 0.6325 µM) | relative viability ([4]; first compound 2 µM)
1 | BEN | 0.604 | 0.688 | 0.796 | 0.681 | 0.591 | 0.533 | 0.557 | 0.594 | 0.553 | 0.544 | 0.349 | 0.298 | 0.331 | 0.252 | 0.26 | 0.506 | 0.553 | 0.539 | 0.52 | 0.477
2 | LCLC-103H | 0.714 | 0.631 | 0.67 | 0.628 | 0.566 | 0.769 | 0.784 | 0.68 | 0.697 | 0.602 | 0.471 | 0.446 | 0.447 | 0.487 | 0.381 | 0.694 | 0.804 | 0.846 | 0.685 | 0.651
3 | EKVX | 0.315 | 0.294 | 0.388 | 0.349 | 0.316 | 0.701 |  | 0.921 | 0.691 | 0.728 | 0.528 |  | 0.807 | 0.539 | 0.565 | 0.704 | 0.576 | 0.761 | 0.709 | 0.594
4 | LXF-289 | 0.351 | 0.415 | 0.332 | 0.325 | 0.38 | 0.746 | 0.666 | 0.769 | 0.608 | 0.73 | 0.194 | 0.218 | 0.184 | 0.254 | 0.156 | 0.778 | 0.576 | 0.73 | 0.778 | 0.852
5 | ABC-1 | 1.17 | 0.955 | 0.966 |  | 1.18 | 1.61 | 0.855 | 1.04 |  | 0.937 | 0.504 | 0.539 | 0.608 | 0.545 | 0.515 | 1.27 | 1.16 | 1.56 | 1.01 | 0.912
6 | NCI-H650 | 0.356 | 0.318 | 0.398 | 0.312 | 0.359 | 0.414 | 0.427 | 0.543 | 0.464 | 0.411 | 0.414 | 0.515 | 0.526 | 0.45 | 0.401 | 0.465 | 0.377 | 0.434 | 0.42 | 0.254
7 | NCI-H1650 | 0.451 | 0.424 | 0.411 | 0.415 | 0.361 | 0.476 | 0.493 | 0.537 | 0.422 | 0.448 | 0.31 |  | 0.205 | 0.163 | 0.17 | 0.572 | 0.556 | 0.589 | 0.525 | 0.512
8 | NCI-H2085 | 0.528 | 0.578 | 0.544 | 0.535 | 0.547 | 0.741 | 0.751 | 0.863 | 0.832 | 0.815 | 0.272 | 0.236 | 0.215 | 0.279 | 0.229 | 0.729 | 0.716 | 0.799 | 0.781 | 0.748
9 | NCI-H1793 | 0.479 | 0.457 | 0.451 | 0.423 | 0.376 | 0.767 | 0.574 | 0.728 | 0.515 | 0.421 | 0.286 | 0.398 | 0.403 | 0.316 | 0.276 | 0.635 | 0.616 | 0.765 | 0.676 | 0.679
10 | LC-2-ad | 0.699 | 0.855 | 0.899 | 0.771 | 0.852 | 0.708 | 0.76 | 0.742 | 0.687 | 0.703 | 0.572 | 0.756 | 0.566 | 0.538 | 0.433 | 0.589 | 0.768 | 0.707 | 0.668 | 0.434
11 | COR-L 105 | 0.636 | 0.587 | 0.637 | 0.601 | 0.69 | 0.656 | 0.727 | 0.879 | 0.828 | 0.931 | 0.275 | 0.279 | 0.371 | 0.307 | 0.276 | 0.694 | 0.872 | 0.697 | 0.605 | 0.835
12 | NCI-H1355 | 0.378 | 0.309 | 0.348 | 0.352 | 0.348 | 0.576 | 0.626 | 0.695 | 0.607 | 0.49 | 0.658 | 0.713 | 0.74 | 0.735 | 0.507 | 0.584 | 0.571 | 0.623 | 0.631 | 0.519
13 | H3255 | 0.585 |  | 0.591 |  | 0.681 | 0.793 |  | 0.77 |  | 0.795 | 0.399 |  | 0.41 | 0.274 | 0.353 | 0.781 | 0.884 | 0.835 | 0.865 | 0.67
14 | NCI-H1993 | 0.59 | 0.624 | 0.582 | 0.696 | 0.576 | 0.968 | 0.93 | 0.703 | 0.691 | 0.892 | 0.694 | 0.595 | 0.611 | 0.641 | 0.578 | 0.734 | 0.843 | 1.08 | 0.767 | 0.008
15 | NCI-H1734 | 0.456 | 0.555 | 0.409 | 0.404 | 0.47 | 0.794 | 0.913 | 0.848 | 0.841 | 0.907 | 0.443 | 0.53 | 0.514 | 0.425 | 0.468 | 0.846 |  | 0.907 | 0.767 | 0.556
